# Assay results as given in patent publication US6960574B2, “Antagonists of RF-amide neuropeptides” (University of Florida, priority 2002, dated 2005).
# Square brackets hold non-standard residues; d marks the D form. Peptide text beside a SMILES is read from it. * marks the point of attachment. ξ: configuration not given here. Dansyl = CN(C)c1cccc2c(S(=O)(=O)*)cccc12; ξL = CC(C)CC(N)C(=O)O
# Tested on: receptor labeled by the radioiodinated analogue of 1 (4, [125I]-YLFQPQRF-NH2); neuropeptide FF receptor
# Assay: Competitive radioligand binding against 4 ([125I]Y8F-amide)
# Settings: mixture-based positional scanning; difference from averaged radioligand displacement of whole library (0); about 80 a.u. = 10-fold change in Ki
# Excerpt: Additionally, three-dimensional (3-D) molecular models of the known smaller-size neuropeptide FF antagonists 3 and 3a were constructed and their low-energy conformations were obtained in the AMBER force-field [Weiner, et al., J. Comput. Chem. 1986, 7, […].] by molecular dynamics calculations involving simulated annealing. A semi-empirical quantum chemical method with the PM3 parameterization [Stewart, J. Comput. Chem. 1989, 10, 209-220.] was used for the final geometry optimization. […] At least one of the rings in domain B is aromatic. No similarity between 3 and 3a outside these domains were apparent; therefore, the simultaneous presence of A and B domains in the structure of neuropeptide FF (1) antagonists is critical to the invention. Apparently, structural subunits (domain C) outside domains A and B should function in a cooperative manner in directing the pharmacophores into proper geometric positions when improved binding to the cognate receptor is to be obtained, which is associated with the improvement of the desired pharmacological effect. An approach involving mixture-based synthetic combinatorial libraries and positional scanning [(a) Houghten, et al., J. Med Chem. 1999, 42, 3743-3778.] was adopted in the search for preferred structural motifs in domain C that assist in achieving this objective in this invention. To allow for the use of 3 as a reference in this process, the guadinino group (A) was incorporated as part of an L-2-amino-5-{[amino(imino)methyl]amino}pentanoyl (arginyl, R, Arg) residue and 5-dimethylamino-1-naphthalenesulphonyl (dansyl) was chosen to form B (However, it must be emphasized that both R and dansyl are replaceable with moieties that bestow A and B domain attributes described in the invention).
# Upon screening for residues to replace the glutamine of 3, serine (S) was the only building block in this position that increased the displacement of 4 in the radioligand-binding assay. Therefore, motifs present in dansyl-Gly-Ser-Arg-NH2, dansyl-Gly-Gln-Arg-NH2, dansyl-Gln-Ser-Arg-NH2, and dansyl-Gln-Gln-Arg-NH2 were chosen based on their affinity to the cognate receptor for further consideration as primary templates when designing the domain C of the compounds described in the invention herein. […]
row,SMILES,Relative Binding Index (RBI) [a.u.]
1,CC(C)C[C@H](NS(=O)(=O)c1cccc2c(N(C)C)cccc12)C(=O)N[C@@H](CCC(=O)O)C(=O)N[C@@H](CCCNC(=N)N)C(N)=O [Dansyl-LER-amide] (Dansyl-Leu-Glu-Arg-NH2),−32
2,CN(C)c1cccc2c(S(=O)(=O)N[C@@H](Cc3ccc(O)cc3)C(=O)N[C@@H](CCCNC(=N)N)C(=O)N[C@@H](CCCNC(=N)N)C(N)=O)cccc12 [Dansyl-YRR-amide] (Dansyl-Tyr-Arg-Arg-NH2),6
3,CN(C)c1cccc2c(S(=O)(=O)NCC(=O)N[C@@H](CCCNC(=N)N)C(=O)N[C@@H](CCCNC(=N)N)C(N)=O)cccc12 [Dansyl-GRR-amide],24
4,CC(C)[C@H](NC(=O)[C@H](CCC(=O)O)NS(=O)(=O)c1cccc2c(N(C)C)cccc12)C(=O)N[C@@H](CCCNC(=N)N)C(N)=O [Dansyl-EVR-amide] (Dansyl-Glu-Val-Arg-NH2),12
5,CN(C)c1cccc2c(S(=O)(=O)N[C@@H](Cc3c[nH]c4ccccc34)C(=O)N[C@@H](Cc3c[nH]c4ccccc34)C(=O)N[C@@H](CCCNC(=N)N)C(N)=O)cccc12 [Dansyl-WWR-amide] (Dansyl-Trp-Trp-Arg-NH2),17
6,CN(C)c1cccc2c(S(=O)(=O)N[C@@H](CO)C(=O)N[C@@H](CCC(N)=O)C(=O)N[C@@H](CCCNC(=N)N)C(N)=O)cccc12 [Dansyl-SQR-amide] (Dansyl-Ser-Gln-Arg-NH2),30
7,"CN(C)c1cccc2c(S(=O)(=O)N[C@@H](CCC(N)=O)C(=O)N[C@@H](CO)C(=O)N[C@@H](CCCNC(=N)N)C(N)=O)cccc12 [Dansyl-QSR-amide, dansyl-Gln-Ser-Arg-NH2] (Dansyl-Gln-Ser-Arg-NH2)",42
8,CC(C)C[C@H](NS(=O)(=O)c1cccc2c(N(C)C)cccc12)C(=O)N[C@@H](Cc1ccc(O)cc1)C(=O)N[C@@H](CCCNC(=N)N)C(N)=O [Dansyl-LYR-amide] (Dansyl-Leu-Tyr-Arg-NH2),−33
9,C[C@H](NC(=O)[C@H](Cc1c[nH]c2ccccc12)NS(=O)(=O)c1cccc2c(N(C)C)cccc12)C(=O)N[C@@H](CCCNC(=N)N)C(N)=O [Dansyl-WAR-amide] (Dansyl-Trp-Ala-Arg-NH2),−40
10,CC(C)CC(NC(=O)[C@H](Cc1ccccc1)NS(=O)(=O)c1cccc2c(N(C)C)cccc12)C(=O)N[C@@H](CCCNC(=N)N)C(N)=O (stereo partly drawn) [Dansyl-FLR-amide] (Dansyl-Phe-[ξL]-Arg-NH2),1
11,CN(C)c1cccc2c(S(=O)(=O)NCC(=O)N[C@@H](CCC(=O)O)C(=O)N[C@@H](CCCNC(=N)N)C(N)=O)cccc12 [Dansyl-GER-amide] (Dansyl-Gly-Glu-Arg-NH2),25
12,CC(C)C[C@H](NC(=O)[C@H](Cc1cnc[nH]1)NS(=O)(=O)c1cccc2c(N(C)C)cccc12)C(=O)N[C@@H](CCCNC(=N)N)C(N)=O [Dansyl-HLR-amide] (Dansyl-His-Leu-Arg-NH2),8
13,CN(C)c1cccc2c(S(=O)(=O)N[C@@H](CO)C(=O)N[C@@H](Cc3c[nH]cn3)C(=O)N[C@@H](CCCNC(=N)N)C(N)=O)cccc12 [Dansyl-SHR-amide] (Dansyl-Ser-His-Arg-NH2),11
14,CSCC[C@H](NC(=O)[C@H](CCC(N)=O)NS(=O)(=O)c1cccc2c(N(C)C)cccc12)C(=O)N[C@@H](CCCNC(=N)N)C(N)=O [Dansyl-QMR-amide] (Dansyl-Gln-Met-Arg-NH2),21
15,CN(C)c1cccc2c(S(=O)(=O)N[C@@H](CCC(=O)O)C(=O)N[C@@H](CCCCN)C(=O)N[C@@H](CCCNC(=N)N)C(N)=O)cccc12 [Dansyl-EKR-amide] (Dansyl-Glu-Lys-Arg-NH2),14
16,CN(C)c1cccc2c(S(=O)(=O)N[C@@H](Cc3ccc(O)cc3)C(=O)N3CCC[C@H]3C(=O)N[C@@H](CCCNC(=N)N)C(N)=O)cccc12 [Dansyl-YPR-amide] (Dansyl-Tyr-Pro-Arg-NH2),10
17,CC[C@H](C)[C@H](NC(=O)[C@H](C)NS(=O)(=O)c1cccc2c(N(C)C)cccc12)C(=O)N[C@@H](CCCNC(=N)N)C(N)=O [Dansyl-AIR-amide] (Dansyl-Ala-Ile-Arg-NH2),19

row,SMILES,Relative Binding Index (RBI) [a.u.]
1,CN(C)c1cccc2c(S(=O)(=O)N[C@@H](Cc3c[nH]c4ccccc34)C(=O)N[C@@H](CCC(N)=O)C(=O)N[C@@H](CCCNC(=N)N)C(N)=O)cccc12 [Dansyl-WQR-amide] (Dansyl-Trp-Gln-Arg-NH2),22
2,CN(C)c1cccc2c(S(=O)(=O)N3CCC[C@H]3C(=O)N[C@@H](Cc3ccccc3)C(=O)N[C@@H](CCCNC(=N)N)C(N)=O)cccc12 [Dansyl-PFR-amide] (Dansyl-Pro-Phe-Arg-NH2),−49
3,CSCC[C@H](NS(=O)(=O)c1cccc2c(N(C)C)cccc12)C(=O)N[C@@H](CO)C(=O)N[C@@H](CCCNC(=N)N)C(N)=O [Dansyl-MSR-amide] (Dansyl-Met-Ser-Arg-NH2),−23
4,CC(C)[C@H](NC(=O)[C@H](CCCCN)NS(=O)(=O)c1cccc2c(N(C)C)cccc12)C(=O)N[C@@H](CCCNC(=N)N)C(N)=O [Dansyl-KVR-amide] (Dansyl-Lys-Val-Arg-NH2),20
5,CC[C@H](C)[C@H](NC(=O)[C@@H](NS(=O)(=O)c1cccc2c(N(C)C)cccc12)C(C)C)C(=O)N[C@@H](CCCNC(=N)N)C(N)=O [Dansyl-VIR-amide] (Dansyl-Val-Ile-Arg-NH2),2
6,CN(C)c1cccc2c(S(=O)(=O)N[C@@H](CCCNC(=N)N)C(=O)N[C@@H](Cc3ccccc3)C(=O)N[C@@H](CCCNC(=N)N)C(N)=O)cccc12 [Dansyl-RFR-amide] (Dansyl-Arg-Phe-Arg-NH2),5
7,CN(C)c1cccc2c(S(=O)(=O)N[C@@H](CC(=O)O)C(=O)N[C@@H](Cc3ccccc3)C(=O)N[C@@H](CCCNC(=N)N)C(N)=O)cccc12 [Dansyl-DFR-amide] (Dansyl-Asp-Phe-Arg-NH2),−7
8,CSCC[C@H](NS(=O)(=O)c1cccc2c(N(C)C)cccc12)C(=O)N[C@@H](CCC(=O)O)C(=O)N[C@@H](CCCNC(=N)N)C(N)=O [Dansyl-MER-amide] (Dansyl-Met-Glu-Arg-NH2),−44
9,CN(C)c1cccc2c(S(=O)(=O)NCC(=O)NCC(=O)N[C@@H](CCCNC(=N)N)C(N)=O)cccc12 [Dansyl-GGR-amide],30
10,C[C@H](NS(=O)(=O)c1cccc2c(N(C)C)cccc12)C(=O)N[C@@H](CO)C(=O)N[C@@H](CCCNC(=N)N)C(N)=O [Dansyl-ASR-amide] (Dansyl-Ala-Ser-Arg-NH2),33
11,C[C@@H](O)[C@H](NS(=O)(=O)c1cccc2c(N(C)C)cccc12)C(=O)N[C@@H](CO)C(=O)N[C@@H](CCCNC(=N)N)C(N)=O [Dansyl-TSR-amide] (Dansyl-Thr-Ser-Arg-NH2),12
12,CN(C)c1cccc2c(S(=O)(=O)N[C@@H](CC(N)=O)C(=O)NCC(=O)N[C@@H](CCCNC(=N)N)C(N)=O)cccc12 [Dansyl-NGR-amide] (Dansyl-Asn-Gly-Arg-NH2),18
13,CC[C@H](C)[C@H](NS(=O)(=O)c1cccc2c(N(C)C)cccc12)C(=O)N[C@@H](Cc1c[nH]c2ccccc12)C(=O)N[C@@H](CCCNC(=N)N)C(N)=O [Dansyl-IWR-amide] (Dansyl-Ile-Trp-Arg-NH2),−2
14,CC(C)[C@H](NC(=O)CNS(=O)(=O)c1cccc2c(N(C)C)cccc12)C(=O)N[C@@H](CCCNC(=N)N)C(N)=O [Dansyl-GVR-amide] (Dansyl-Gly-Val-Arg-NH2),20
15,CN(C)c1cccc2c(S(=O)(=O)N3CCC[C@H]3C(=O)N[C@@H](CCCCN)C(=O)N[C@@H](CCCNC(=N)N)C(N)=O)cccc12 [Dansyl-PKR-amide] (Dansyl-Pro-Lys-Arg-NH2),−50
16,CN(C)c1cccc2c(S(=O)(=O)N[C@@H](CCCCN)C(=O)N[C@@H](Cc3c[nH]cn3)C(=O)N[C@@H](CCCNC(=N)N)C(N)=O)cccc12 [Dansyl-KHR-amide] (Dansyl-Lys-His-Arg-NH2),19
